Data from patent publication US20030096704A1, “Novel use of herbicides” (priority 2000, published 2003).

Legend:
[1] = test system: Cyperus serotinus (CYPSE); assay: Post-emergence herbicidal action on rice (paddy system): weed control; type: in vivo; conditions: 8 g/ha; leaf stage 3, height 11 cm at application; about 21 days
Method: (§1) Post-emergence Herbicidal Action on Rice:
(§2) Weeds are sown and raised in soil saturated with water in plastics troughs. The rice plants are sown and grown separately from the weeds and after 10 days transplanted into the plastics troughs containing the weeds. The test compounds are then applied to the plants in the form of an aqueous suspension. One day after application, the water level is raised by 3 cm (paddy system).
(§3) The test plants are then grown on in a greenhouse under optimum conditions. […] For comparison with the prior art, the compound sulfometuron-methyl (known from The Pesticide Manual, 10th ed., the British Crop Protection Council, page 931) is tested. Sulfometuron-methyl belongs to the same class of ALS-inhibitors as the compound of formula I. The compound of formula I and sulfometuron-methyl are tested at a rate of application of 8 g/ha.

[2] = test system: Monochoria vaginalis (MOOVA); assay: as above; type: in vivo; conditions: 8 g/ha; leaf stage 2, height 1 cm at application; about 21 days
Method: as §1, §2, §3

[3] = test system: Echinochloa crus galli (ECHCG); assay: as above; type: in vivo; conditions: 8 g/ha, about 21 days
Method: as §1, §2, §3

[4] = test system: Rice ATCC 97523 (ALS-inhibitor-resistant rice variety SPCW-1); assay: Post-emergence herbicidal action on rice (paddy system): phytotoxicity on ALS-inhibitor-resistant rice; type: in vivo, Oryza sativa; conditions: 8 g/ha, evaluated after about 21 days, 0% no action, 100% plant completely died
Method: as §1, §2, §3
The ALS-inhibitor-resistant rice variety used is Oryza sativa, Linnaeus name: SPCW-1, deposited under the number ATCC 97523, depositor: Louisiana State Univ.

[5] = test system: Rice “Lemont” (conventional rice variety); assay: Post-emergence herbicidal action on rice (paddy system): phytotoxicity on conventional rice; type: in vivo, Oryza sativa; conditions: 8 g/ha, evaluated after about 21 days, 0% no action, 100% plant completely died
Method: as §1, §2, §3
The variety “Lemont” is used as conventional rice variety.

COC(=O)c1ccccc1S(=O)(=O)NC(=O)Nc1nc(C)cc(C)n1 [sulfometuron-methyl]
% Weed control CYPSE [1]: 95%
% Weed control MOOVA [2]: 100%
% Weed control ECHCG 1 ([3]; Echinochloa crus galli post 1.0 leaf (leaf stage 1.5, height 6 cm at application)): 100%
% Weed control ECHCG 3 ([3]; Echinochloa crus galli post 3.0 leaf (leaf stage 3, height 25 cm at application)): 98%
% Phytotoxicity Rice ATCC 97523 [4]: 95%
% Phytotoxicity Rice “Lemont” [5]: 100%
